Experimental data as given in ChEMBL document CHEMBL1147073, “Signal peptide peptidase and gamma-secretase share equivalent inhibitor binding pharmacology” (J Biol Chem, 2007).
pIC50: −log10 of the molar value. The source made the active and inactive calls. The rule behind the calls is not given here.

Key:
Type in all cases: cell-based
Gamma-secretase [1] = experiment: Displacement of [3H]IN973 from gamma-secretase in human THP1 cells; conditions: thp-1
[2] = Displacement of [3H]L685458 from human SPP expressed in HEK293 cells
Gamma-secretase [3] = experiment: Displacement of [3H]L685458 from gamma-secretase in human THP1 cells; conditions: thp-1
[4] = Inhibition of SPP expressed in HEK293 cells in presence of Prl-PP peptide after 30 mins
HEK293 = experiment: Inhibition of SPP expressed in HEK293 cells at 10 uM in presence of Prl-PP peptide after 30 mins

pIC50 (Gamma-secretase [1])	pIC50 [2]	pIC50 (Gamma-secretase [3])	pIC50 [4]	Structure (SMILES)	Activity (HEK293)
3.48	4.34	4.24	–	CSc1ccc(/C=C2/C(C)=C(CC(=O)O)c3cc(F)ccc32)cc1 [SULINDAC SULFIDE]	–
7.14	8.00	8.37	5.00	CC(C)C[C@H](NC(=O)[C@H](Cc1ccccc1)C[C@@H](O)[C@H](Cc1ccccc1)NC(=O)OC(C)(C)C)C(=O)N[C@@H](Cc1ccccc1)C(N)=O	–
5.69	8.28	8.06	5.70	CC(C)C[C@H](NC(=O)OCc1ccccc1)C(=O)N[C@@H](CC(C)C)C(=O)NCC(=O)CNC(=O)[C@H](CC(C)C)NC(=O)[C@H](CC(C)C)NC(=O)OCc1ccccc1	–
8.92	–	6.29	–	C[C@H](NC(=O)[C@@H](O)c1cc(F)cc(F)c1)C(=O)N[C@@H]1C(=O)N(C)N=Cc2ccccc21	inactive
8.20	4.47	< 4.00	–	C[C@H](NC(=O)Cc1cc(F)cc(F)c1)C(=O)N[C@H](C(=O)OC(C)(C)C)c1ccccc1	inactive
7.92	4.54	4.59	–	C[C@H](c1ccc(F)cc1CCCC(=O)O)N(c1cc(F)ccc1F)S(=O)(=O)c1ccc(Cl)cc1	inactive

Structure (SMILES)	pIC50 (Gamma-secretase [1])	pIC50 [2]	pIC50 (Gamma-secretase [3])	pIC50 [4]	Activity (HEK293)
CCC[C@H](C(N)=O)[C@@H](CC(C)C)C(=O)N[C@H]1N=C(c2ccccc2)c2ccccc2N(C)C1=O	–	6.25	–	–	inactive
